The values that follow come from PMC9001717, “Tyrosine 121 moves revealing a ligandable pocket that couples catalysis to ATP-binding in serine racemase” (Communications Biology, 2022).

In one test the target is T1, hSR Tyr 121 pocket (Homo sapiens, UniProt Q9GZT4, C2D/C6D).
T1 construct: (His)6 (C); made in house; host or cells: E. coli (BL21-CodonPlus (DE3)-RIL for the mutants; the wild type is only 'as described[33]')
T1 sequence (Q9GZT4 1-340 C2D/C6D): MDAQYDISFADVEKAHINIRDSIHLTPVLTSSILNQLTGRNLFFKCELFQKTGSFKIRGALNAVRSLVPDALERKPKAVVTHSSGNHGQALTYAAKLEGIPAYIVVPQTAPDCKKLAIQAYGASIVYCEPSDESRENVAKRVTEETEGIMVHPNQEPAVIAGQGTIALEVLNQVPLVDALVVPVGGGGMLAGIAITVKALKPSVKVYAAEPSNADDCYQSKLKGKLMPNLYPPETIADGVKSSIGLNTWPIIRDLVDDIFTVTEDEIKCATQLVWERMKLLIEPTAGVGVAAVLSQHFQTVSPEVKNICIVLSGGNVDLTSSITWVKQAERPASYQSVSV
Nature of the test: XChem crystallographic fragment screen. It is filed as binding. Details: key: A = best; D = worst. The conditions noted are these: crystals soaked with 150 mM fragment. The procedure:
A crystallographic fragment screen was performed on holo crystals using the XChem screening strategy at Diamond Light Source[58]. For the XChem experiments, holo crystals were generated at 20 °C in 96-well Swissci 3-drop, sitting drop plates (Molecular Dimensions) using 14 mg/mL SR plus fresh 5 mM DTT dispensed in a 3:2 ratio (300 nL protein + 200 nL reservoir) equilibrated against 20 μL reservoir containing 100 mM MES pH 6.2, 100 mM Calcium chloride, 5% ethylene glycol and 20% PEG Smear Broad (Molecular Dimensions). This crystallisation condition differs from that reported in a recent crystal structure of holo SR (6SLH) which was crystallised against reservoir/precipitate of 100 mM Bis-Tris pH 6.5, 15% PEG 3350, 250 mM MgCl2[33]. ATP was present in the protein delivery buffer at 1.25-fold times the protein subunit concentration.
Crystal soaking, harvesting, mounting, and data collections were performed at the Diamond Light Source XChem facilities and beamline I04-1 through the XChem workflow[50],[59]. […] The full compound screen was performed on 600 crystals which were each soaked with 150 mM fragment compound (30% v/v of 500 mM stocks in DMSO) for ≥1.5 h before crystals were harvested and mounted on the fast microscope crystal mounting system. The fragments screened were obtained from the Diamond-SGC-iNext Poised (DSiP) XChem library.
The structure of the representative XChem holo crystal (20% DMSO soak, no fragment) presented in this paper (6ZUJ) was solved by rigid body refinement based on a previous structure (6SLH)[33] and refined with phenix.refine[71] and REFMAC5[68],[72] and modelled in coot[69]. Initial analysis of approx. 600 ligand-soaked crystals was carried out using XChemExplorer[59] a data-management and workflow tool to support large-scale simultaneous analysis of protein–ligand complexes during structure-based ligand discovery. The workflow flagged 95 structures with binding events, 44 of which were classified as interesting, spanning four distinct binding sites. Five SR structures from the XChem screen are described in this paper that are representative examples of the four major binding sites. One compound, 2-x0406, occupied not just one of the four major binding sites, but also occupied a second site adjacent to the tyrosine 121 pocket.

Test [1] addresses T2, human serine racemase (hSR) WT (Homo sapiens, UniProt Q9GZT4, C2D/C6D).
T2 construct: (His)6 (C); made in house; host or cells: E. coli (BL21-CodonPlus (DE3)-RIL for the mutants; the wild type is only 'as described[33]')
T2 sequence (Q9GZT4 1-340 C2D/C6D): T1 sequence (Q9GZT4 1-340 C2D/C6D)
As to the kind of experiment: L- to D-Ser racemisation coupled luminescence assay, wild-type hSR. It is filed as biochemical. The conditions noted are these: for inhibition of SR, in words: assay data for compounds observed to displace Tyr 121; for inhibition at 16700 µM: maximum compound concentration 16.7mM, read-out: inhibition at maximum concentration used in assay; for IC50: wild-type hSR, 1 mM ATP, 2 mM L-serine, 16.7% DMSO, ~ = extrapolated with artificial 100% point at 1 M. The procedure: (§1) The ability of compounds to inhibit the L to D-Ser racemisation activity of hSR was measured in a coupled assay. In the assay, hSR converts L-Ser to D-Ser. The D-Ser is then converted into pyruvate, ammonia and hydrogen peroxide using D-amino acid oxidase. Next, the hydrogen peroxide reacts with luminol in the presence of horseradish peroxidase, producing luminescent by-product. In the assay malonate was used as a control compound and gave 100% inhibition – results for XChem compounds are shown in Supplementary Table 4 and in supplementary Fig. 12. The activity of the wild-type and the three Y121 mutants, Y121F, Y121A and Y121G was measured at six ATP concentrations (1 mM, 0.5 mM, 0.25 mM, 0.125 mM, 0.062 mM and 0.031 mM) as shown in supplementary Fig. 11.
(§2) The inhibition of hSR activity was measured using a luminescence assay in a 384 well plate (flat bottom white, Corning). Initially, each well contained 100 mM Tris pH 8.5, 0.05% Pluronic f-127 (VWR), 1 mM MgCl2, 1 mM ATP (disodium salt, Fisher), 10 µM PLP, 0.3 nM hSR, 2 mM L-serine and compound at 16.67 mM to 0.0077 mM (see supplementary Fig. 12) and had 16.7% DMSO concentration. The plate was incubated at RT with shaking for 30 min. After this, the reaction was stopped using a detection mix. The final well concentration was 100 mM Tris pH 8.5, 0.05% Pluronic f-127 (VWR), 1 mM EDTA (Fisher), 0.25 U/mL horseradish peroxidase, 0.5 U/mL D-amino acid oxidase and 25 µM Luminol (Insight Biotechnology) and 8.4% DMSO. The plate was left to incubate covered and shaking for 10 min. The plate was then read using a PHERAstar (BMG) plate reader. For the ATP dependant activity data, the method was kept the same, except for varying the concentration of ATP.
(§3) The relative light units read (x) on the PHERAstar were converted into percentage inhibition (PI) using the equation: PI=100x[1−(x−Min)/(Max−Min)] where min is negative control (100% inhibition) and max is the positive control (no inhibition). The IC50s were calculated with GraphPad (Prism 8.3.1, Graphpad Software, San Diego CA).

In another test the target is T3, hSR Y121F (Homo sapiens, UniProt Q9GZT4, C2D/C6D/Y121F).
T3 construct: (His)6 (C); made in house; host or cells: E. coli BL21-CodonPlus (DE3)-RIL
T3 sequence (Q9GZT4 1-340 C2D/C6D/Y121F): T1 sequence (Q9GZT4 1-340 C2D/C6D) with Y121F
Nature of the test: L- to D-Ser racemisation coupled luminescence assay, Y121F mutant. It is filed as biochemical. The conditions noted are these: 1 mM ATP, 2 mM L-serine, 16.7% DMSO, ~ = extrapolated. The procedure:
as §1, §2, §3

In the next test the target is T4, hSR Y121A (Homo sapiens, UniProt Q9GZT4, C2D/C6D/Y121A).
T4 construct: (His)6 (C); made in house; host or cells: E. coli BL21-CodonPlus (DE3)-RIL
T4 sequence (Q9GZT4 1-340 C2D/C6D/Y121A): T1 sequence (Q9GZT4 1-340 C2D/C6D) with Y121A
Nature of the test: L- to D-Ser racemisation coupled luminescence assay, Y121A mutant. The conditions noted are these: 1 mM ATP, 2 mM L-serine, 16.7% DMSO, ~ = extrapolated. Type of test: biochemical. The procedure:
as §1, §2, §3

The next test concerns the target T5, hSR Y121G (Homo sapiens, UniProt Q9GZT4, C2D/C6D/Y121G).
T5 construct: (His)6 (C); made in house; host or cells: E. coli BL21-CodonPlus (DE3)-RIL
T5 sequence (Q9GZT4 1-340 C2D/C6D/Y121G): T1 sequence (Q9GZT4 1-340 C2D/C6D) with Y121G
As to the kind of experiment: L- to D-Ser racemisation coupled luminescence assay, Y121G mutant. Type of test: biochemical. The conditions noted are these: 1 mM ATP, 2 mM L-serine, 16.7% DMSO, ~ = extrapolated. The procedure: as §1, §2, §3

The subject of test [2] is SR. Details: method as in supplementary refs 2, 11-32. The conditions noted are these: literature summary; ref supplementary refs 2, 11-32; cited from earlier work.
The target of test [3] is SR. The conditions noted are these: cited from earlier work; for Ki: review of SR inhibitors.
A further test has as its system rat brain SR. Set-up: method as in PMID 30918891, PMID 12021263. The conditions noted are these: cited from earlier work.
Test [4] concerns slime mould (D. discoideum) SR. Details: method as in ref 56 (a number printed in a supplementary file, which may have a reference list of its own: not looked up in the article's list). The conditions noted are these: ref 56; cited from earlier work.

Positions count from the first letter of the chain named. Read-outs that look alike come from different tables or passages of the source.

For the compound `NC(=O)c1cnc(C(F)(F)F)nc1` [5-x0501], on hSR Tyr 121 pocket, the “Initial rank from examination of XChem electron density/fit” value is listed as “D”.

Take `CC(CS(N)(=O)=O)c1ccccc1` (centres unmarked) [10-x0302]: the “Initial rank from examination of XChem electron density/fit” value at hSR Tyr 121 pocket is on record as “D”.

For orientation: IC50 means the concentration that gives 50% inhibition. In the case of `Nc1ccccc1N1CCOCC1` [3-x0458], in test [1], the “inhibition of SR, in words” value was “reasonably potent inhibitors”. The inhibition at 16700 µM in test [1] was found to be 100%. For the same compound, the IC50 in test [1] was 0.0106 mM; at hSR Y121F it was 0.0123 mM; on hSR Y121A, 0.0094 mM; at hSR Y121G, 0.0234 mM.

In general, Ki refers to a measure of affinity in units of concentration, obtained from inhibition or displacement. Turning to `N[C@H](C(=O)O)[C@H](O)C(=O)O` [L-erythro-3-hydroxy-aspartate], the Inhibition mode result in the test on SR [2] was “Competitive”. For the same compound, on SR [3], the Ki is less than 0.1 mM.

As to `CC(=O)NCCc1ccccc1C` [1-x0495], in [1] (10mM, value of the originally submitted manuscript, quoted in peer review file), the inhibition at 10000 µM was 102%. Further, the IC50 in test [1] is roughly 19.5 mM; on hSR Y121A, roughly 23.6 mM. Further, on hSR Tyr 121 pocket, the “Initial rank from examination of XChem electron density/fit” value is on record as “A”.

Regarding `CCCc1nnc(NC(=O)c2ccccn2)s1` [8-x0127], the “Initial rank from examination of XChem electron density/fit” value at hSR Tyr 121 pocket is “D”.

Regarding `O=C(CCCc1ccccc1)N1CCOCC1` [7-x0109], the IC50 is roughly 12.5 mM in test [1], roughly 20.7 mM at hSR Y121F, roughly 22.3 mM on hSR Y121A and roughly 26 mM at hSR Y121G.

As to `CS(=O)(=O)Cc1nc2ccccc2[nH]1` [15-x0306], the half-maximal inhibitory concentration (IC50) is roughly 12.8 mM in test [1] and roughly 16.1 mM at hSR Y121A.

`[Mn+2]` [Mn^2+]: in the test on rat brain SR (10 μM ion), the “SR activity in the presence of the ion” value is given as 153%.

Take `Cn1nccc1C(=O)NCc1cccs1` [9-x0154]: the “Initial rank from examination of XChem electron density/fit” value at hSR Tyr 121 pocket is “D”.

Regarding `O=C(NCc1nc2ccccc2[nH]1)c1ccco1` [2-x0406], the half-maximal inhibitory concentration (IC50) is roughly 3.7 mM in test [1], roughly 7.8 mM on hSR Y121F, roughly 8.4 mM at hSR Y121A and roughly 7.4 mM on hSR Y121G.

Turning to `[Ca+2]` [Ca^2+], the “SR activity in the presence of the ion” value in the test on rat brain SR (1 mM ion) is on record as 134%.

Regarding `CC(=O)NC1CNc2ccccc2C1` (centres unmarked) [4-x0482], in test [1], the “inhibition of SR, in words” value was “reasonably potent inhibitors”. For the same compound, in [1], the inhibition at 16700 µM came out at 100%. Also, the IC50 was 0.0051 mM in test [1], 0.0032 mM at hSR Y121F, 0.0033 mM at hSR Y121A and 0.0044 mM at hSR Y121G.

`N[C@@H](CC(=O)NO)C(=O)O` [L-aspartic acid β-hydroxamate]: the Inhibition mode entry with SR [2] is on record as “Competitive”. Also, the Ki at SR [3] was less than 0.1 mM.

Turning to `NCc1cc(-c2ccccc2)no1` [12-x0437], the IC50 in [1] is roughly 25.3 mM; on hSR Y121F it was roughly 29.9 mM; at hSR Y121A it was roughly 37.6 mM; on hSR Y121G, roughly 26.3 mM. In addition, the “Initial rank from examination of XChem electron density/fit” value at hSR Tyr 121 pocket is on record as “D”.

Turning to `OCc1ccc(-n2cnc3ccccc32)cc1` [14-x0478], the IC50 in [1] is roughly 6.9 mM; at hSR Y121F, roughly 7.4 mM; on hSR Y121A it was roughly 7.85 mM.

Take madecassoside: in the test on SR [2], the Inhibition mode entry is recorded as “Competitive”. Further, the half-inhibitory concentration (IC50) with SR [3] (ref 49) was 0.026 mM.

In the case of `[Mg+2]` [Mg^2+], the “SR activity in the presence of the ion” value in the test with rat brain SR (10 μM ion) was 112%.

With `CNCC1COc2ccccc2O1` (centres unmarked) [6-x0513], the “Initial rank from examination of XChem electron density/fit” value on hSR Tyr 121 pocket was “A”.

Consider `Nc1ncnc2c1ncn2[C@@H]1O[C@H](COP(=O)(O)OP(=O)([O-])OP(=O)([O-])O)[C@@H](O)[C@H]1O.[Mg+2]` [Mg-ATP], for which, in test [4], the increase of elimination is on record as 6 fold and the increase of racemisation is 2.5 fold.
